According to patent US20220306603A1, “TARGETING DNA REPAIR IN TUMOR CELLS VIA INHIBITION OF ERCC1-XPF” (The Governors of the University of Alberta, priority 2019, published 2022):
“Also recorded” adds a separate entry of the source.

Experiments:
HCT116 cells [1] = experiment: Clonogenic survival assay, cyclophosphamide treatment; format: cell-based, human; conditions: cyclophosphamide 0-300 μM; compound 1-4 μM
Procedure: Plates were incubated for another 8 days at 37° C. in a 5% CO2 atmosphere for colony formation. After this period plates were stained with crystal violet, colonies were counted, and plating efficiency and surviving fraction were calculated.

[2] = ADME screening: solubility; format: physicochemical; conditions: Table 8
HCT116 cells [3] = experiment: Cytotoxicity profile: crystal violet viability assay (and colony forming assay); format: cell-based, human; conditions: crystal violet staining; for Gen C1 also colony forming assay
Procedure: Crystal violet viability assays were carried out to assess the cellular toxicity of these compounds to HCT116 cells and to choose relatively non-cytotoxic concentrations to be further utilised in sensitizing cells to UV radiation or cyclophosphamide.
The beneficial effect is especially visible at a concentration of 5.0 μM. At higher concentrations, both compounds show an equal cytotoxic effect (FIG. 15).

HCT116 cells [4] = experiment: Clonogenic survival assay, UV treatment; format: cell-based, human; conditions: 254 nm UV 0-10 J/m^2; compound 0.5-4 μM
Procedure: UV treatment: HCT116 cells (100-800 cells depending on the UV dose) were plated in triplicate in 60-mm petri dishes. The cells were incubated overnight at 37° C. in a humidified atmosphere containing 5% CO2 to allow for cell attachment. […] Medium was removed again, and cells were exposed to increasing doses (0-10 J/m^2) of UV-C radiation and then incubated for a further 10 days in the presence of inhibitor at 37° C. in a 5% CO2 atmosphere to allow for colony formation. After this period plates were stained with crystal violet and colonies were counted using a Colcount instrument (Oxford Optronix, Abingdon UK). Finally, plating efficiency and surviving fraction were calculated.

[5] = ADME screening: cell permeability and efflux ratio; conditions: Table 8
[6] = Hepatocyte stability in vitro; format: in vitro ADME; conditions: Table 8
[7] = Microsomal stability in vitro (human liver microsomes); conditions: Table 8
[8] = tested on: five CYP450 tested enzymes
HCT116 cells [9] = experiment: Cellular repair of UV-induced cyclobutane pyrimidine dimers (immunofluorescence); format: cell-based, human; conditions: 8 J/m^2 UV-C, up to 24 h post-irradiation
Procedure: Protocol of Mirzayans et al. was followed with minor modifications (30). Approximately 1×10^5 HCT116 cells were seeded on each coverslip and allowed to attach overnight. Medium was then removed and cells were treated for one hour with the desired compound. The medium was removed, and cells were exposed to 8 J/m^2 UV-C radiation (G15T8 254 nm lamp, Ushio America Inc, Cypress, Calif.) followed by adding fresh medium containing the compound. Plates were incubated at 37° C. for different periods of time up to 24 hours and fixed in 50:50 methanol/1× phosphate-buffered saline (PBS) solution, followed by replacing the methanol/PBS solution with 100% methanol and incubation in −20° C. After 20 minutes, methanol was removed, and cells were treated with PBS for 5 minutes in room temperature. After fixing, cells were permeabilized in 0.5% Triton/PBS and washed with PBS, denatured in 2 N HCl, and neutralized by twice washing with 0.1 M borate buffer pH 8.5. Cells on cover slips were washed once with PBS followed by blocking with 5% non-fat dry milk/PBS for 30 minutes. Mouse anti-thymine dimer monoclonal antibody (Cat. No. MC-062, Kamiya Biomedical Company, Seattle, Wash.) was applied to the cover slips for one hour in the dark and at room temperature. Cells were then washed with PBS containing 0.1% Tween-20 and incubated with rabbit anti-mouse IgG-Alexafluor antibody (Invitrogen, Carlsbad, Calif.) followed by two washes with PBS/(0.1%)Tween-20. Cells on coverslips were then washed with PBS, rinsed with water, and mounted on slides using DAPI glycerol mounting solution. Slides were kept at 4° C. before fluorescent microscopic evaluation and measurement of fluorescence intensity with MetaXpress Version: 6.2.1.704 software (Molecular Devices, Sunnyvale, Calif.).
To test for inhibition of nucleotide excision repair, we monitored the cellular removal of UVC-induced cyclobutane pyrimidine dimers (CPDs) in HCT116 cells over a 24-hour period using an immunochemical assay.

ERCC1-XPF = molecular target: T1, ERCC1-XPF (Homo sapiens, UniProt Q92889); experiment: Microplate fluorescence incision assay of ERCC1-XPF endonuclease activity; format: biochemical
T1 construct: His6; made in house; host or cells: E. coli BL21 (DE3)
T1 sequence (Q92889 1-916): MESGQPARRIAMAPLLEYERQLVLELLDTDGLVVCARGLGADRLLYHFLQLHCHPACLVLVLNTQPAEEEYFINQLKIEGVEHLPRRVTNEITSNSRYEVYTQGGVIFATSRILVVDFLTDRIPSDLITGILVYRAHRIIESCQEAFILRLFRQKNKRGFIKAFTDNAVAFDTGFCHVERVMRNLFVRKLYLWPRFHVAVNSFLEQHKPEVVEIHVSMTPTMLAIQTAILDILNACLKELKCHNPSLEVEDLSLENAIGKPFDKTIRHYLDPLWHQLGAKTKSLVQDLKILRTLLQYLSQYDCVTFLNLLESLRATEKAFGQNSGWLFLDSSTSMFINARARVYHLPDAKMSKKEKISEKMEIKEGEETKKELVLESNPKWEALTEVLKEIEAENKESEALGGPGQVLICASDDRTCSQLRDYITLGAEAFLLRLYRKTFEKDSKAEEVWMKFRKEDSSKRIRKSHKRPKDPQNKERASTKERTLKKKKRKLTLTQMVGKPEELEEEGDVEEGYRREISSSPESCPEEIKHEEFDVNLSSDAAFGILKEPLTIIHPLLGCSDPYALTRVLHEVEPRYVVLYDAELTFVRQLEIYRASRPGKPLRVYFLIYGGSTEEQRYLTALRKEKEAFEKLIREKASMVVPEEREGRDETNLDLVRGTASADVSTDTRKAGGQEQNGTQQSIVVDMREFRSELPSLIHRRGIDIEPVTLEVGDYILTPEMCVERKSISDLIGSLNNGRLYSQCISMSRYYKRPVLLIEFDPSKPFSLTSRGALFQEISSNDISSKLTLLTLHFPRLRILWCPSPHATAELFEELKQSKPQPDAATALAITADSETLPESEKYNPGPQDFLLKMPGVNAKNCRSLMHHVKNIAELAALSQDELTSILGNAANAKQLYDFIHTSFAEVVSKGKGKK
Excerpt: This assay has been previously described (29), and utilizes a stem-loop substrate (composed of a 10mer-duplex stem and a 20mer-oligodT single-strand loop), labelled on the 5′-terminus with 6-FAM and 3′ with the quencher dabcyl.
Human ERCC1-XPF wild-type protein was obtained as previously described (29). Basically, the recombinant protein was expressed from a bicistronic plasmid (provided by Dr. Richard Wood, University of Texas MD Anderson Cancer Center, Smithville, Tex.) in the E. coli BL21 (DE3) strain. Since both XPF and ERCC1 contained a polyhistidine (His-6) tag, the proteins extracted from E. coli were incubated with a ProBond Nickel-Chelating Resin (Thermo Fisher Scientific). Protein eluted from the Ni affinity column was subsequently loaded into a Hi-trap heparin column (GE Healthcare). Fractions recovered from the heparin column that contained ERCC1-XPF were dialyzed, concentrated and stored at −80° C. in 10 mM HEPES pH 7.4, 2.5 mM p-mercaptoethanol, 0.01% CHAPS, 0.25 mM EDTA, 50% glycerol and 25 mM NaCl.
A previously described protocol (2,29) was followed.

serum proteins = experiment: ADME screening: serum protein binding; format: in vitro ADME; conditions: Table 8

## COc1ccc2nc3cc(Cl)ccc3c(Nc3ccc(O)c(CN4CCN(CCN(C(C)C)C(C)C)CC4)c3)c2c1 [Gen C-1, 4-((6-Chloro-2-methoxyacridin-9-yl)amino)-2-((4-(2-(diisopropylamino)ethyl)piperazin-1-yl)methyl)-phenol]
HCT116 cells [1]
  sensitisation to cyclophosphamide, clonogenic survival (in words): significantly sensitised the HCT116 cells to cyclophosphamide; also recorded: significantly sensitized the cells to cyclophosphamide
[2]
  Solubility (in words): Good
HCT116 cells [3]
  cytotoxicity (in words): lower cytotoxicity
HCT116 cells [4]
  sensitisation to UV radiation, clonogenic survival (in words): significant sensitisation effect
[5]
  Cell permeability (Mean recovery %) (in words): Low
[6]
  Hepatocyte stability in vitro CLint (in words): (medium clearance)
ADME screening: LogD; Table 8
  LogD (rating): Good
  LogD (remark in the LogD row): (partially soluble)
ADME screening: LogD; pH 7.4
  logD: 3.95
[7]
  Microsomal stability in vitro CLint (in words): Low clearance
[8]
  CVP inhibition (5 enzyme) (rating): Good
HCT116 cells [9]
  inhibition of cellular removal of CPDs / thymidine dimers (in words): significant inhibition of removal of CPDs
ERCC1-XPF; compounds 10 μM each
  inhibition of ERCC1-XPF endonuclease activity (in words): higher inhibitory effect
ERCC1-XPF; full-length ERCC1-XPF, 30 minutes incubation, 5% DMSO, read-out: IC50 of ERCC1-XPF endonuclease activity
  IC50: 167 nM
Serum proteins
  Serum protein binding (% bound): (99.5) % bound
  Serum protein binding (in words): Strong binding
